Test results taken from ChEMBL document CHEMBL1201862, “PubChem BioAssay data set” (2004).
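Cells were grown in 96-well plates and exposed to each compound for 48 hours at five concentrations; endpoints were interpolated linearly between bracketing concentrations, or set to the highest concentration if not reached. At the GI50, growth is halved.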 The source made the active and inactive calls. Cut-off read from the data, not from the text of the source: active = GI50 up to about 1.1 µM and inactive = higher. *1 amine or outer side, *2 acyl side, *3 side chain or, on linkers, in order; H or OH if unused. Where a SMILES comes first, the peptide text is derived from it. Bridges are numbered along the chain shown (N, C = ends). [ ]: non-standard residue; d: D form. ξ: configuration not given here. X10 = CCC(C)C(N[*:1])C(O)CC(=O)O[C@H](C(=O)C(C)C(=O)[*:2])C(C)C; NMeY = CN[C@@H](Cc1ccc(O)cc1)C(=O)O; ξNMeL = CNC(CC(C)C)C(=O)O; ξT = CC(O)C(N)C(=O)O

What was measured:
Test in all cases: NCI-60 cell line screen, 48 h
[1] = test system: BT-549
[2] = test system: DLD-1
[3] = test system: M19-MEL
[4] = test system: DMS-114
[5] = test system: DMS-273
[6] = test system: HOP-18
[7] = test system: XF498
[8] = test system: SNB-78

SMILES: CCCSc1ccc2[nH]c(/N=C/c3ccco3)cc2c1
- GI50 [1]: 31 µM (inactive)

SMILES: COc1cc(C2SCC(=O)N2c2ccccn2)cc(OC)c1OC (stereo not drawn)
- GI50 [1]: 98.6 µM (inactive)

SMILES: CCSSCS(C)(=O)=O
- GI50 [1]: 32.1 µM (inactive)

SMILES: COc1ccc(NC(=S)N/N=C/c2c(C)n(C)n(-c3ccccc3)c2=O)cc1
- GI50 [1]: 43.7 µM (inactive)

SMILES: Cn1cc(C(=O)NCCC(=N)N)cc1NC(=O)C1=[N+](C)C=C(NC(=O)c2cccc(C(=O)NC3=CC(C(=O)Nc4cc(C(=O)NCCC(=N)N)cn4C)=[N+](C)C3)c2)C1
- GI50 [2]: > 100 µM (inactive)
- GI50 [3]: > 100 µM (inactive)
- GI50 [4]: 70.6 µM (inactive)
- GI50 [5]: 59.8 µM (inactive)
- GI50 [6]: > 100 µM (inactive)
- GI50 [7]: > 100 µM (inactive)

SMILES: Cc1ccc2[nH]c3[nH]c(=S)[nH]c(=O)c3c2c1
- GI50 [1]: > 100 µM (inactive)

SMILES: CC(=O)Nc1ccc(-c2nnc(SCC(=O)Nc3ccc(C)cc3)o2)cc1
- GI50 [2]: 14.9 µM (inactive)
- GI50 [3]: 17.6 µM (inactive)
- GI50 [4]: 14.8 µM (inactive)
- GI50 [5]: 15.9 µM (inactive)
- GI50 [8]: 16.6 µM (inactive)
- GI50 [6]: 17.4 µM (inactive)

SMILES: Cc1ccsc1C(=S)Nc1ccc(Cl)c(/C=N/OC(C)C)c1
- GI50 [1]: 67.9 µM (inactive)

SMILES: OC(C1CCCCCCCCCC1)C(O)C1CCCCCCCCCC1 (stereo not drawn)
- GI50 [1]: > 100 µM (inactive)

SMILES: O=[N+]([O-])c1ccc(/N=N/c2c(O)ccc3cc(S(=O)(=O)O)cc(S(=O)(=O)O)c23)cc1
- GI50 [1]: > 100 µM (inactive)

SMILES: O=C1C(c2ccc(Br)cc2)=[N+]([O-])c2ccccc21
- GI50 [2]: 8.51 µM (inactive)
- GI50 [3]: 9.62 µM (inactive)
- GI50 [4]: 3.94 µM (inactive)
- GI50 [6]: 11.9 µM (inactive)
- GI50 [7]: 17.5 µM (inactive)

SMILES: CCN1C(=S)n2cccc2C1CC(=O)c1ccc(Cl)cc1 (stereo not drawn)
- GI50 [1]: 64.9 µM (inactive)

SMILES: COC(=O)c1cc(C(=O)OC)cc(-c2ccc3c(c2)-c2nc4c(c(-c5ccc(OC)cc5)c2CC3)CCc2ccc(-c3cc(C(=O)OC)cc(C(=O)OC)c3)cc2-4)c1
- GI50 [1]: > 100 µM (inactive)

SMILES: CC(C(=O)N1C(=O)N(C(=O)C(C)C(O)c2ccccc2)C2CCCCC21)C(O)c1ccccc1 (stereo not drawn)
- GI50 [3]: 83.8 µM (inactive)
- GI50 [5]: > 100 µM (inactive)
- GI50 [8]: > 100 µM (inactive)
- GI50 [7]: 79.6 µM (inactive)

SMILES: CC(=O)OC1COC(N2CCc3cc([N+](=O)[O-])ccc32)C(OC(C)=O)C1OC(C)=O (stereo not drawn)
- GI50 [2]: > 100 µM (inactive)
- GI50 [3]: > 100 µM (inactive)
- GI50 [4]: > 100 µM (inactive)
- GI50 [5]: > 100 µM (inactive)
- GI50 [8]: > 100 µM (inactive)
- GI50 [7]: 50.4 µM (inactive)

SMILES: CC1=NN(c2cccc(Cl)c2)C2(C1)SCC(=O)N2c1nc2ccccc2s1 (stereo not drawn)
- GI50 [1]: 29.3 µM (inactive)

SMILES: COc1cc(Oc2nc3c(N)cc(C(F)(F)F)cc3nc2-c2ccccc2)cc(OC)c1OC
- GI50 [1]: 4.03 µM (inactive)

SMILES: CNC(=S)OCCC(C)CCCC(C)C (stereo not drawn)
- GI50 [2]: 15.5 µM (inactive)
- GI50 [3]: 19.3 µM (inactive)
- GI50 [5]: 16.8 µM (inactive)
- GI50 [8]: 18.8 µM (inactive)
- GI50 [6]: 15.3 µM (inactive)
- GI50 [7]: 17 µM (inactive)

SMILES: Cc1cc(NCCCCCCCNc2cc(C)nc3cc(N)ccc23)c2ccc(N)cc2n1
- GI50 [2]: 28.8 µM (inactive)
- GI50 [3]: 32.2 µM (inactive)
- GI50 [4]: 1.57 µM (inactive)
- GI50 [8]: 40.3 µM (inactive)
- GI50 [7]: 17.2 µM (inactive)

SMILES: CCC(C)C1NC(=O)C(NC(=O)C(CC(C)C)N(C)C(=O)[C@@H]2CCCN2)C(C)OC(=O)[C@H](Cc2ccc(OC)cc2)N(C)C(=O)[C@@H]2CCCN2C(=O)[C@H](CC(C)C)NC(=O)C(C)C(=O)[C@H](C(C)C)OC(=O)CC1O (stereo partly drawn) (H-P[ξNMeL][ξT][X10]LP[NMeY](Me); ester 3-C)
- GI50 [1]: 0.00156 µM (active)

SMILES: Cc1ccc(O)c(-c2cc(-c3cccc(Br)c3)on2)c1
- GI50 [1]: 27.7 µM (inactive)

SMILES: CC(C)=CCC[C@@H](C)C1=C(O)C(O)C(C)=C2N=C(c3ccccc3)C(=O)OC21 (stereo partly drawn)
- GI50 [1]: 2.15 µM (inactive)

SMILES: O=C1C=CC(=C(c2ccccc2)c2ccc(O)cc2)C=C1
- GI50 [1]: 6.03 µM (inactive)

SMILES: CCNC(=S)NNC(=O)CSc1nc2ccc(I)cc2c(=O)n1Cc1ccccc1
- GI50 [1]: > 54.1 µM (inactive)

SMILES: COc1cc2c(/C=C3/C(=O)Nc4ccccc43)c(Cl)[nH]c2cc1C
- GI50 [1]: 0.0603 µM (active)

SMILES: O=C(c1ccccc1)n1cc(-c2ccccc2)c2c(=O)nc[nH]c21
- GI50 [1]: > 100 µM (inactive)

SMILES: CC(C)c1cccc(C(C)C)c1NC(=O)C(=O)CC(=O)CC(c1ccccc1)c1c(O)oc2ccccc2c1=O (stereo not drawn)
- GI50 [2]: > 100 µM (inactive)
- GI50 [4]: > 100 µM (inactive)

SMILES: CC(NC(=O)C(Cc1ccc(OC(=O)c2ccccc2)cc1)NC(=O)OC(C)(C)C)C(=O)NCC(=O)NC(Cc1ccccc1)C(=O)NN (stereo not drawn)
- GI50 [1]: 55.5 µM (inactive)

SMILES: O=C(CCC(=O)c1ccc(Cl)cc1)NO
- GI50 [1]: > 100 µM (inactive)

SMILES: CC1=NN(C(=O)CC(=O)Nc2ccccc2C)C(=O)C1/N=N/c1ccc(C(=O)O)cc1 (stereo not drawn)
- GI50 [1]: > 100 µM (inactive)

SMILES: CCCCN[C@H]1C2C3CC4C5CC(C42)C1(C)C53 (stereo partly drawn)
- GI50 [2]: > 100 µM (inactive)
- GI50 [3]: > 100 µM (inactive)
- GI50 [4]: > 100 µM (inactive)
- GI50 [5]: > 100 µM (inactive)
- GI50 [8]: > 100 µM (inactive)
- GI50 [6]: > 100 µM (inactive)

SMILES: CC(C)(C)OC(=O)N1CCCC1C(=O)NCCNc1ccc(NCCNC(=O)C2CCCN2C(=O)OC(C)(C)C)c2c1C(=O)c1ccccc1C2=O (stereo not drawn)
- GI50 [1]: 13 µM (inactive)

SMILES: COc1ccc2c(cnc3c4cc(OC)c(OC)cc4ccc23)c1
- GI50 [1]: > 100 µM (inactive)

SMILES: Cc1cc(C)c(N)c(C)c1N
- GI50 [2]: > 100 µM (inactive)
- GI50 [3]: > 100 µM (inactive)
- GI50 [4]: > 100 µM (inactive)
- GI50 [5]: > 100 µM (inactive)
- GI50 [8]: > 100 µM (inactive)
- GI50 [6]: > 100 µM (inactive)

SMILES: COC1OC2COC(C)(C)OC2C2OC(C)(C)OC12 (stereo not drawn)
- GI50 [1]: > 100 µM (inactive)

SMILES: Cc1[nH]c2cc([N+](=O)[O-])ccc2c1[N+](=O)[O-]
- GI50 [2]: 22.6 µM (inactive)
- GI50 [4]: 9.93 µM (inactive)
- GI50 [7]: 20.7 µM (inactive)

SMILES: CCOC(=O)c1nc[nH]c1/N=N/N(C)N
- GI50 [1]: > 100 µM (inactive)

SMILES: [N-]=[N+]=Nc1c(Cl)c(=O)n(-c2ccccc2)c2ccccc12
- GI50 [1]: 19.9 µM (inactive)

SMILES: Cc1cc(=O)oc2c(C)c3oc(CBr)c(Br)c3cc12
- GI50 [1]: 29.3 µM (inactive)

SMILES: Oc1cc(CF)nc(S)n1
- GI50 [1]: > 100 µM (inactive)

SMILES: CCCC[N+](CCCC)(CCCC)CCCC.O=S(=O)([O-])ON=C1c2ccccc2-c2ccccc21
- GI50 [1]: > 100 µM (inactive)

SMILES: COc1ccc(CCN2CCN(CCCc3ccccc3)CC2)cc1
- GI50 [1]: 70.5 µM (inactive)

SMILES: Oc1c(Br)cc(Br)cc1CN(Cc1cc(Br)cc(Br)c1O)C1CCCCC1
- GI50 [1]: 33.1 µM (inactive)

SMILES: COC1=C(Br)[C@H](O)[C@@]2(C=C1Br)CC(C(=O)NCCCCCNC(=N)N)=NO2 [APLYSINAMISINE II]
- GI50 [1]: > 10 µM (inactive)

SMILES: O=C(O)CCC(NC(=O)c1ccc(Nc2cnc3ccc(C(F)(F)F)cc3n2)cc1)C(=O)O (stereo not drawn)
- GI50 [1]: > 100 µM (inactive)

SMILES: COc1ccc(/C=C2\CCC(CNc3ccc(S(N)(=O)=O)cc3)C2=O)cc1 (stereo not drawn)
- GI50 [1]: 18.7 µM (inactive)

SMILES: CCOC(=O)N1CCN(c2c(N)nc(C)nc2O)CC1
- GI50 [1]: > 100 µM (inactive)

SMILES: COc1ccc(CCN2CCC(C#N)(c3ccc(OC)c(OC)c3)CC2)cc1OC
- GI50 [2]: > 100 µM (inactive)
- GI50 [3]: > 100 µM (inactive)
- GI50 [4]: 60.4 µM (inactive)
- GI50 [5]: > 100 µM (inactive)
- GI50 [6]: > 100 µM (inactive)
- GI50 [7]: 50.2 µM (inactive)

SMILES: O=C1/C(=C/c2ccc(O)cc2)CC/C1=C\c1ccc(O)cc1
- GI50 [1]: > 100 µM (inactive)

SMILES: CCN(CCCN(CC)C(=O)Nc1c(C)cccc1C)C(=O)Nc1c(C)cccc1C
- GI50 [1]: > 100 µM (inactive)

SMILES: COc1ccc(-c2nc(N)c3ncn(C4OC(CO)C(O)C4O)c3n2)cc1 (stereo not drawn)
- GI50 [1]: > 100 µM (inactive)

SMILES: COc1ccc(OC)c2sc(N3C(=O)/C(=C/c4ccccc4S)N=C3c3ccccc3)nc12
- GI50 [1]: 45.9 µM (inactive)

SMILES: COc1cccc(N2C(=O)C3c4[nH]c5ccc(C)cc5c4C4CCC(C)CC4C3C2=O)c1 (stereo not drawn)
- GI50 [1]: 76 µM (inactive)

SMILES: COc1ccccc1NC(=S)N/N=C/c1cccc(C)n1
- GI50 [1]: 15.1 µM (inactive)
